Source: ChEMBL document CHEMBL6092180 (Eur J Med Chem, 2024)
≈ marks a conversion by molar mass, not a printed value. Calls of active or inactive are those of the source. No cut-off for these calls is given here.

What was measured:
[1] = test system: Candida albicans; test: Antifungal activity against Candida albicans SC5314 assessed as inhibition of fungal growth by CLSI M27-A3 guidelines based method; type: functional
[2] = test system: Candida albicans; test: Antifungal activity against Candida albicans GIM 2.194 assessed as inhibition of fungal growth by CLSI M27-A3 guidelines based method; type: functional
[3] = test system: Candida tropicalis; test: Antifungal activity against Candida tropicalis GIM 2.183 assessed as inhibition of fungal growth by CLSI M27-A3 guidelines based method; type: functional
[4] = test system: Candida parapsilosis; test: Antifungal activity against Candida parapsilosis GIM 2.190 assessed as inhibition of fungal growth by CLSI M27-A3 guidelines based method; type: functional; conditions: Lodderomyces parapsilosis
[5] = test system: Nakaseomyces glabratus; test: Antifungal activity against Candida glabrata assessed as inhibition of fungal growth by CLSI M27-A3 guidelines based method; type: functional
[6] = test system: Pichia kudriavzevii; test: Antifungal activity against Candida krusei GIM 2.1 assessed as inhibition of fungal growth by CLSI M27-A3 guidelines based method; type: functional
[7] = test system: Cryptococcus neoformans; test: Antifungal activity against Cryptococcus neoformans CGMCC 2.3161 assessed as inhibition of fungal growth by CLSI M27-A3 guidelines based method; type: functional
[8] = Metabolic stability in human liver microsomes assessed as half-life preincubated for 10 mins followed by NADPH addition and measured after 60 mins by LC-MS/MS analysis; type: ADME, Microsome; conditions: time 70 min
[9] = Metabolic stability in human liver microsomes assessed as parent compound remaining preincubated for 10 mins followed by NADPH addition and measured after 60 mins by LC-MS/MS analysis; type: ADME, Microsome; conditions: time 70 min, read-out: Stability
[10] = test system: Aspergillus fumigatus; test: Antifungal activity against Aspergillus fumigatus cgmcc 3.7795 assessed as inhibition of fungal growth by CLSI M27-A3 guidelines based method; type: functional
[11] = test system: Candida albicans; test: Antifungal activity against fluconazole-resistant Candida albicans CaR assessed as inhibition of fungal growth by CLSI M27-A3 guidelines based method; type: functional
[12] = test system: Candida albicans; test: Antifungal activity against fluconazole and iodiconazole resistant Candida albicans clinical isolate 17# assessed as inhibition of fungal growth by CLSI M27-A3 guidelines based method; type: functional
[13] = test system: Candida albicans; test: Antifungal activity against fluconazole-resistant Candida albicans clinical isolate 901 assessed as inhibition of fungal growth by CLSI M27-A3 guidelines based method; type: functional
[14] = test system: Candida albicans; test: Antifungal activity against fluconazole-resistant Candida albicans clinical isolate 904 assessed as inhibition of fungal growth by CLSI M27-A3 guidelines based method; type: functional
[15] = test system: Candida albicans; test: Antifungal activity against fluconazole-resistant Candida albicans clinical isolate 632 assessed as inhibition of fungal growth by CLSI M27-A3 guidelines based method; type: functional
[16] = test system: Candida albicans; test: Antifungal activity against fluconazole-resistant Candida albicans clinical isolate 100 assessed as inhibition of fungal growth by CLSI M27-A3 guidelines based method; type: functional
[17] = test system: Candida albicans; test: Antifungal activity against fluconazole-resistant Candida albicans clinical isolate 103 assessed as inhibition of fungal growth by CLSI M27-A3 guidelines based method; type: functional
[18] = test system: Candida albicans; test: Antifungal activity against fluconazole-resistant Candida albicans clinical isolate 311 assessed as inhibition of fungal growth by CLSI M27-A3 guidelines based method; type: functional
[19] = test system: Candida albicans; test: Fungicidal activity against Candida albicans SC5314 incubated for 48 hrs by PDA plate based method; type: functional
[20] = test system: Candida albicans; test: Fungicidal activity against fluconazole and iodiconazole resistant Candida albicans clinical isolate 17# incubated for 48 hrs by PDA plate based method; type: functional
[21] = test system: Candida albicans; test: Fungicidal activity fluconazole and iodiconazole resistant Candida albicans clinical isolate 17# assessed as decrease in number of fungi at 16 microg/ml measured within 24 hrs by time-kill kinetics assay; type: functional, organism-based; conditions: dose 16.0 µg/ml
[22] = test system: Candida albicans; test: Effect on sterol composition in Candida albicans SC5314 assessed as ergosterol content at 4 microg/ml measured after 16 hrs by GC-MS analysis (reference value: 96.96 %); type: functional; conditions: dose 4 µg/ml
[23] = test system: Candida albicans; test: Effect on sterol composition in Candida albicans SC5314 assessed as 14alpha-demethyllanosterol content at 4 microg/ml measured after 16 hrs by GC-MS analysis (reference value: 1.98 %); type: functional; conditions: dose 4 µg/ml
[24] = test system: Candida albicans; test: Effect on sterol composition in Candida albicans SC5314 assessed as obtusifoliol content at 4 microg/ml measured after 16 hrs by GC-MS analysis relative to control; type: functional; conditions: dose 4 µg/ml
[25] = test system: Candida albicans; test: Effect on sterol composition in Candida albicans SC5314 assessed as lanosterol content at 4 microg/ml measured after 16 hrs by GC-MS analysis relative to control; type: functional; conditions: dose 4 µg/ml
[26] = test system: Candida albicans; test: Effect on sterol composition in Candida albicans SC5314 assessed as eburicol content at 4 microg/ml measured after 16 hrs by GC-MS analysis relative to control; type: functional; conditions: dose 4 µg/ml
[27] = test system: Candida albicans; test: Effect on sterol composition in Candida albicans SC5314 assessed as other sterols content at 4 microg/ml measured after 16 hrs by GC-MS analysis (reference value: 1.06 %); type: functional; conditions: dose 4 µg/ml
[28] = test system: Candida albicans; test: Antibiofilm activity against fluconazole-resistant Candida albicans CPCC400616 assessed as inhibition of metabolic activity of biofilm measured after 6 hrs by XTT reduction assay; type: functional
[29] = test system: Candida albicans; test: Antibiofilm activity against fluconazole-resistant Candida albicans CPCC400616 assessed as inhibition of metabolic activity of biofilm measured after 24 hrs by XTT reduction assay; type: functional
[30] = test system: Candida albicans; test: Inhibition of hyphal formation in fluconazole-resistant Candida albicans CPCC400616 assessed as reduction in invasive ability at 2 microg/ml measured after 4 hrs by inverted microscopic analysis; type: functional, organism-based; conditions: dose 2.0 µg/ml
[31] = Cytotoxicity against human NCI-H460 cells assessed as inhibition of cell growth incubated for 72 hrs by MTT assay; type: toxicity, cell-based
[32] = Cytotoxicity against human OVCAR-3 cells assessed as inhibition of cell growth incubated for 72 hrs by MTT assay; type: toxicity, cell-based
[33] = Cytotoxicity against HUVEC cells assessed as inhibition of cell growth incubated for 72 hrs by MTT assay; type: toxicity, cell-based; conditions: human
[34] = Cytotoxicity against HEK293T cells assessed as inhibition of cell growth incubated for 72 hrs by MTT assay; type: toxicity, cell-based, HEK-293T; conditions: human

CN(Cc1ccc(C#Cc2ccccc2)cc1)CC(O)(Cn1cncn1)c1ccc(F)cc1F (stereo not given) gave an MIC80 [1] of 0.013 µg/mL (≈ 0.0284 µM), an MIC80 [2] of 0.013 µg/mL (≈ 0.0284 µM) and an MIC80 [3] of 0.013 µg/mL (≈ 0.0284 µM). For the same compound, the MIC80 [4] was 0.013 µg/mL (≈ 0.0284 µM), the MIC80 [5] was 0.1 µg/mL (≈ 0.218 µM) and the MIC80 [6] was 0.05 µg/mL (≈ 0.109 µM). For the same compound, the MIC80 [7] was 0.025 µg/mL (≈ 0.0545 µM), the half-life [8] was 4.39 min and the remaining at 1 h [9] was 0.936%.
Compound OC(Cn1cncn1)(Cn1cncn1)c1ccc(F)cc1F [FLUCONAZOLE] has an MIC80 [1] of 0.25 µg/mL (≈ 0.816 µM), an MIC80 [2] of 0.5 µg/mL (≈ 1.63 µM) and an MIC80 [3] of 0.25 µg/mL (≈ 0.816 µM). The MIC80 [4] was 1 µg/mL (≈ 3.27 µM), the MIC80 [5] was 8 µg/mL (≈ 26.1 µM) and the MIC80 [6] was 8 µg/mL (≈ 26.1 µM). For the same compound, the MIC80 [7] was 4 µg/mL (≈ 13.1 µM), the MIC80 [10] was 64 µg/mL (≈ 209 µM) and the MIC80 [11] was greater than 64 µg/mL. For the same compound, the MIC80 [12] was greater than 64 µg/mL, the MIC80 [13] was greater than 64 µg/mL and the MIC80 [14] was greater than 64 µg/mL. It also gave an MIC80 [15] greater than 64 µg/mL, an MIC80 [16] greater than 64 µg/mL and an MIC80 [17] greater than 64 µg/mL. The MIC80 [18] was greater than 64 µg/mL, the MFC [19] was greater than 64 µg/mL and the MFC [20] was greater than 64 µg/mL. The Activity [21] was “inactive”, the Activity [22] was 4.57% and the Activity [23] was 3.03%. The Activity [24] was 14.37%, the Activity [25] was 9.3% and the Activity [26] was 60.09%. The Activity [27] was 8.64%, the MIC50 [28] was 16 µg/mL (≈ 52.2 µM) and the MIC50 [29] was greater than 32 µg/mL. For the same compound, the inhibition [30] was “inactive”, the IC50 at 72 h [31] was greater than 40 µM and the IC50 at 72 h [32] was greater than 40 µM. The IC50 at 72 h [33] was greater than 40 µM and the IC50 at 72 h [34] was greater than 40 µM.
In the case of CN(Cc1ccc(C#Cc2ccc(F)cc2F)cc1)CC(O)(Cn1cncn1)c1ccc(F)cc1F (stereo not given), the MIC80 [1] is reported as 0.006 µg/mL (≈ 0.0121 µM), the MIC80 [2] is reported as 0.006 µg/mL (≈ 0.0121 µM) and the MIC80 [3] is reported as 0.006 µg/mL (≈ 0.0121 µM). For the same compound, the MIC80 [4] was 0.006 µg/mL (≈ 0.0121 µM), the MIC80 [5] was 0.01 µg/mL (≈ 0.0202 µM) and the MIC80 [6] was 0.01 µg/mL (≈ 0.0202 µM). It also gave an MIC80 [7] of 0.013 µg/mL (≈ 0.0263 µM), a half-life [8] of 26.3 min and a remaining at 1 h [9] of 20.9%.
